Consider 7 compounds from patent US5206234A, “Benzolactam analogs as antagonists of CCK” (priority 1991, dated 1993).

pIC50: −log10 of the molar value.

In one experiment the test system is CCK-A receptors. The conditions noted are these: cited from earlier work.
Experiment [1] deals with T1, CCK receptor (Brain, cerebral cortex) (Cavia porcellus, UniProt H0VZC5).
T1 construct: Cerebral cortex was dissected and used as a receptor source; from tissue; host or cells: cerebral cortex membranes of male Hartley guinea pigs
T1 sequence (H0VZC5 1-426): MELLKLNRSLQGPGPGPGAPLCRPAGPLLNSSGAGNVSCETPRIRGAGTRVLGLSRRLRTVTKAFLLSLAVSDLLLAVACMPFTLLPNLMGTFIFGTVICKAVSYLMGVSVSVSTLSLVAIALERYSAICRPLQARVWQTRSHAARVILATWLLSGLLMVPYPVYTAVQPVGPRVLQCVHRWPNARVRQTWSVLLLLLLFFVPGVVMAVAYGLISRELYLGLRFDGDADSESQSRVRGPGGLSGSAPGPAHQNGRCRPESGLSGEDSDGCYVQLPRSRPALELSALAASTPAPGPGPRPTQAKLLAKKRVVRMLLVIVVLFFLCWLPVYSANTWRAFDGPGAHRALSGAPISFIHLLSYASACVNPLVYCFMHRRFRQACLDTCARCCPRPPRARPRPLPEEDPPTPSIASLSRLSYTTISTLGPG
In words: CCK Receptor Binding (Brain), inhibition of 125I-CCK-33 binding. The note with it: head prints ^25 I-CCK; guinea pig cerebral cortex. Details: species or system guinea pig (Male Hartley). As to the method: CCK-33 was radiolabeled and the binding was performed according to the description for the pancreas method with modifications according to Saito et al., J. Neurochem. 37:483-490, 1981.
Male Hartley guinea pigs (300-500 g) were sacrificed by decapitation and the brains were removed and placed in ice-cold 50 mM Tris HCl plus 7.58 g/l Trizma-7.4 (pH 7.4 at 25° C.). Cerebral cortex was dissected and used as a receptor source. Each gram of fresh guinea pig brain tissue was homogenized in 10 ml of Tris/Trizma buffer with a Brinkman polytron PT-10. The homogenates were centrifuged at 42,000 g for 15 minutes. Pellets were resuspended in Tris Buffer, centrifuged as above and resuspended in 200 volumes of binding assay buffer (10 mM N-2-hydroxyethyl-piperazine-N'-2-ethane sulfonic acid (HEPES), 5 mM MgCl2, 0.25 mg/ml bacitracin, 1 mM ethylene glycol-bis-(β-aminoethylether-N,N'-tetraacetic acid) (EGTA), and 0.4% bovine serum albumin (BSA)). […] All assays were run in duplicate or triplicate. The reaction mixtures were incubated at 25° C. for 2 hours and centrifuged in a Beckman Microfuge (4 minutes) immediately after adding 1 ml of ice-cold incubation buffer. The supernatant was aspirated and discarded, pellets were counted with a Beckman gamma 5000.

Experiment [2] addresses T2, Gastrin receptor (Gastric Glands) (Cavia porcellus, UniProt H0VZC5).
T2 construct: from tissue; host or cells: gastric mucosal glands of male Hartley guinea pigs
T2 sequence (H0VZC5 1-426): T1 sequence (H0VZC5 1-426)
The experiment can be described thus: Gastrin Receptor Binding in Guinea Pig Gastric Glands. The arrangement: species or system guinea pig (male Hartley). The note with it: head prints ^25 I-Gastrin, read-out: Receptor binding IC50, 125I-Gastrin Gastric Glands. The method, then:
Guinea pig gastric mucosal glands were prepared by the procedure of Berglingh and Obrink Acta Physiol. Scand. 96: 150 (1976) with a slight modification according to Praissman et al. C. J. Receptor Res. 3: (1983). Gastric mucosa from guinea pigs (300-500 g body weight, male Hartley) were washed thoroughly and minced with fine scissors in standard buffer consisting of the following: 130 mM NaCl, 12 mM NaHCO3, 3 mM NaH2 PO4, 3 mM Na2 HPO4, 3 mM K2 HPO4, 2 mM MgSO4, 1 mM CaCl2, 5 mM glucose and 4 mM L-glutamine, 25 mM HEPES at pH 7.4. The minced tissues were washed and then incubated in a 37° C. shaker bath for 40 minutes with the buffer containing 0.1% collagenase and 0.1% BSA and bubbled with 95% O2 and 5% CO2. The tissues were passed twice through a 5 ml glass syringe to liberate the gastric glands, and then filtered through 200 mesh nylon. The filtered glands were centrifuged at 270 g for 5 minutes and washed twice by resuspension and centrifugation.
The washed guinea pig gastric glands prepared as above were resuspended in 25 ml of standard buffer containing 0.25 mg/ml of bacitracin. For binding studies, to 220 μl of gastric glands in triplicate tubes, 10 μl of buffer (for total binding) or gastrin (1 μM final concentration, for nonspecific binding) or test compound and 10 μl of ^125 I-gastrin (NEN, 2200 Ci/mmole, 25 pM final) or ^3 H-pentagastrin (NEN 22 Ci/mmole, 1 nM final) were added. The tubes were aerated with 95% O2 and 5% CO2 and capped. The reaction mixtures after incubation at 25° C. for 30 minutes were filtered under reduced pressure on glass G/F B filters (Whatman) and immediately washed further with 4×4 ml of standard buffer containing 0.1% BSA. The radioactivity on the filters was measured using a Beckman gamma 5500 for ^125 I-gastrin or liquid scintillation counting for ^3 H-pentagastrin.

For a further experiment, the target named is T3, CCK receptor (Pancreas) (Rattus norvegicus, UniProt P30551).
T3 construct: The whole pancreas was dissected free of fat tissue and was homogenized; from tissue; host or cells: pancreas membranes of male Sprague-Dawley rats
T3 sequence (P30551 1-444): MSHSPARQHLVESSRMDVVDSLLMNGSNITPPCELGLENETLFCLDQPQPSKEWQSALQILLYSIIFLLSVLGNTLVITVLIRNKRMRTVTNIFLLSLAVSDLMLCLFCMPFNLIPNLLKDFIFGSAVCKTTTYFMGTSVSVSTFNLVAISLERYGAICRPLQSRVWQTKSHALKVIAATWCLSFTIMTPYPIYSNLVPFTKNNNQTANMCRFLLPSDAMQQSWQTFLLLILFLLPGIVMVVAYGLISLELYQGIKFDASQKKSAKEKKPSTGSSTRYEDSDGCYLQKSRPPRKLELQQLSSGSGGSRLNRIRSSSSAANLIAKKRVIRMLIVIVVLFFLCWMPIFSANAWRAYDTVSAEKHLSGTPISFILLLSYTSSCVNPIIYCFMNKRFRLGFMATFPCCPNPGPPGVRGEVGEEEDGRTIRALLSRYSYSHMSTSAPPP
The experiment can be described thus: CCK Receptor Binding (Pancreas), inhibition of 125I-CCK-33 binding. Details: species or system rat (Male Sprague-Dawley). The conditions noted are these: 125I-CCK-33, rat pancreas membranes. As to the method: CCK-33 was radiolabeled with ^125 I-Bolton Hunter reagent (2000 Ci/mmole) as described by Sankara et al. (J. Biol. Chem. 254: 9349-9351, 1979). Receptor binding was performed according to Innis and Snyder (Proc. Natl. Acad. Sci. 77, 6917-6921, 1980) with the minor modification of adding the additional protease inhibitors, phenylmethane sulfonyl fluoride and o-phenanthroline. The latter two compounds have no effect on the ^125 I-CCK receptor binding assay.
Male Sprague-Dawley rats (200-350 g) were sacrificed by decapitation. The whole pancreas was dissected free of fat tissue and was homogenized in 20 volumes of ice-cold 50 mM Tris HCl (pH 7.7 at 25° C.) with a Brinkmann Polytron PT 10. The homogenates were centrifuged at 48,000 g for 10 min. Pellets were resuspended in Tris Buffer, centrifuged as above and resuspended in 200 volumes of binding assay buffer (50 mM Tris HCl, pH 7.7 at 25° C., 5 mM dithiothrietol, 0.1 mM bacitracin, 1.2 mM phenylmethane sulfonyl fluoride and 0.5 mM o-phenanthroline). […] All assays were run in duplicate or triplicate. The reaction mixtures were incubated at 37° C. for 30 minutes and centrifuged in a Beckman Microfuge (4 minutes) immediately after adding 1 ml of ice-cold incubation buffer. The supernatant was aspirated and discarded, pellets were counted with a Beckman gamma 5000. For Scatchard analysis (Ann. N.Y. Acad. Sci. 51: 660, 1949), ^125 I-CCK-33 was progressively diluted with increasing concentrations of CCK-33.
A Ki value (dissociation constant of inhibitor) of the compounds of Formula I was estimated.

The next experiment deals with CCK-B receptors. The conditions noted are these: cited from earlier work.

With `CSCC[C@H](NC(=O)[C@H](Cc1ccc(O)cc1)NC(=O)[C@@H](N)CC(=O)O)C(=O)NCC(=O)N[C@@H](Cc1c[nH]c2ccccc12)C(=O)N[C@@H](CCSC)C(=O)N[C@@H](CC(=O)O)C(=O)N[C@@H](Cc1ccccc1)C(N)=O` [CCK-8d], in the experiment with CCK-A receptors, the “Affinity for CCK-A receptors” value was “lower affinity”.

For orientation: pIC50 means −log10 of the IC50, conventionally taken in molar units. As to `Cc1cccc(NC(=O)NC2CCc3ccccc3N(CC(=O)N3CCN(C)CC3)C2=O)c1` (stereo not drawn) [Example 7, 1-Methyl-4-{[2,3,4,5-tetrahydro-3-{[[(3-methylphenyl)amino]carbonyl]amino}-2-oxo-1H-1-benzazepin-1-yl]aceyl}piperazine], the values for the pIC50 (in experiment [1]; in experiment [2]; at CCK receptor (Pancreas)) were 5.30, 6.21 and 6.01, respectively.

For `CC(C)(C)OC(=O)CN1C(=O)C(NC(=O)Nc2cccc3ccccc23)CCc2ccccc21` (stereo not drawn) [Example 8], the pIC50 in experiment [1] was 6.83; in experiment [2], 6.32; at CCK receptor (Pancreas), 6.02.

`O=C(Nc1cccc2ccccc12)NC1CCc2ccccc2N(CC(=O)N2CCCC2)C1=O` (stereo not drawn) [Example 11, 1-{[2,3,4,5-Tetrahydro-3-{[[(1-naphthalenyl)amino]carbonyl]amino}-2-oxo-1H-1-benzazepin-1-yl]acetyl}pyrrolidine]: the results for the pIC50 (in experiment [1]; in experiment [2]; on CCK receptor (Pancreas)) were 6.19, 6.34 and 5.77, respectively.

Turning to `Cc1ccc(NC(=O)NC2CCc3ccccc3N(CC(=O)OC(C)(C)C)C2=O)cc1` (stereo not drawn) [Example 12], the pIC50 in experiment [1] was 6.18; in experiment [2] it was 6.89; on CCK receptor (Pancreas), 6.77.

For the compound `CSCC[C@H](NC(=O)[C@H](Cc1c[nH]c2ccccc12)NC(=O)CCNC(=O)OC(C)(C)C)C(=O)N[C@@H](CC(=O)O)C(=O)N[C@@H](Cc1ccccc1)C(N)=O` [pentagastrin], in the experiment on CCK-B receptors, the “Affinity for CCK-B receptors” value is “high affinity”.

As for “gastrin: structurally related neuropeptides which exist in gastrointestinal tissue and in the central nervous system”, the “Affinity for CCK-A receptors” value in the experiment with CCK-A receptors is reported as “lower affinity”.
